Earlier results on one compound are cited in patent US20140073694A1, “CYSTAMINE ANALOGUES FOR THE TREATMENT OF PARKINSON'S DISEASE” (UNIVERSITE LAVAL, priority 2011, published 2014).

This series has as its system Huntington's disease patients. The note with it: cited from earlier work.

Turning to `NCCS.O=C(O)C(O)C(O)C(=O)O` (centres unmarked) [cysteamine bitartrate], the clinical efficacy result is “clinical efficacy was not demonstrated”. For the same compound, the tolerable dose (dose escalation 10 to 70 mg/kg per day) is 20 mg/kg per day.
